This is an account of results in patent US20240207268A1, “PYRAZOLYLPYRIMIDINES FOR TREATING MALIGNANT SOLID TUMOR” (BIOTHERYX, INC., priority 2021, published 2024).

One series deals with Beagle dogs. In words: GLP 28-day oral toxicology study of compound A22 in Beagle dogs. The series is classed as in vivo. Conditions: once daily oral gavage, di-HCl or di-p-toluenesulfonate salt. The protocol: (§1) The toxicology studies of compound A22 were performed in Sprague Dawley rats and Beagle dogs. In GLP, 28-day (once daily, 7 days per week) studies, compound A22 was administered as a di-HCl salt or di-p-toluenesulfonate salt by oral gavage. The results are summarized in Tables 1 and 2, where HNSTD is highest nonseverely toxic dose; NOAEL is no-observed-adverse-effect-level; and STDio is severely toxic dose in 10%.

Assay in series [1]: as above
Type of series: in vivo. Conditions: dog, in vivo, once daily oral gavage, di-HCl or di-p-toluenesulfonate salt, read-out: NOAEL (no-observed-adverse-effect-level) dose. The protocol:
as §1

Series [2] in a line: GLP 28-day oral toxicology study of compound A22 in Sprague Dawley rats. The series is classed as in vivo. As to conditions: rat, in vivo, once daily oral gavage, di-HCl or di-p-toluenesulfonate salt, read-out: NOAEL (no-observed-adverse-effect-level) dose. The protocol:
as §1

The next series has as its system Sprague Dawley rats. Described as above. The series is classed as in vivo. Conditions: once daily oral gavage, di-HCl or di-p-toluenesulfonate salt. The procedure: as §1
The nature of series [3]: Steady state toxicokinetics of compound A22 in Sprague Dawley rats (28-day study). As to conditions: rat, in vivo, oral gavage. The protocol: as §1
A short description of series [4]: Steady state toxicokinetics of compound A22 in Beagle dogs (28-day study). As to conditions: dog, in vivo, oral gavage. The protocol:
as §1

Another series in a line: Solubility in water. The series is classed as physicochemical. As to conditions: in water at 25° C.
[5] abbreviates: female rats, 0.7 mg/kg/day (NOAEL).
The mark [6] stands for this setting: female rats, 2.5 mg/kg/day (STD10).
Setting [7] is: male rats, 0.7 mg/kg/day (NOAEL).
[8] abbreviates: male rats, 2.5 mg/kg/day (STD10).
Setting [9] is: female dogs, 0.06 mg/kg/day (NOAEL).
[10] abbreviates: female dogs, 0.2 mg/kg/day (HNSTD).
[11] abbreviates: male dogs, 0.06 mg/kg/day (NOAEL).
[12] abbreviates: male dogs, 0.2 mg/kg/day (HNSTD).

Turning to `Cn1ncc(-c2nc(N[C@H]3CC[C@H](N)CC3)ncc2Cl)c1CC1CC1` [A22, (1r,4r)-N^1-(5-chloro-4-(5-(cyclopropylmethyl)-1-methyl-1H-pyrazol-4-yl)pyrimidin-2-yl)cyclohexane-1,4-diamine], the “HNSTD (highest nonseverely toxic dose)” value with Beagle dogs stood at 0.2 mg/kg/day. Further, the NOAEL (in general, the highest tested level that showed no adverse finding) at 28 day in series [1] stood at 0.06 mg/kg/day; in series [2], 0.7 mg/kg/day. Moreover, the “STD10 (severely toxic dose in 10%) dose” value in the series on Sprague Dawley rats was 2.5 mg/kg/day. The AUC(0-t) (in general, exposure summed from dosing to a finite time, without extrapolation to infinity) was found to be 160 ng·h/mL in series [3] (setting [5]); 2390 ng·h/mL in series [3] (setting [6]); 152 ng·h/mL in series [3] (setting [7]); 2520 ng·h/mL in series [3] (setting [8]); 129 ng·h/mL in series [4] (setting [9]); 471 ng·h/mL in series [4] (setting [10]). In addition, the AUC(0-t) in series [4] (setting [11]) is 102 ng·h/mL; in series [4] (setting [12]), 567 ng·h/mL. Further, the Cmax – broadly, the highest concentration seen after dosing – came to 13.6 ng/mL in series [3] (setting [5]); 156 ng/mL in series [3] (setting [6]); 13.7 ng/mL in series [3] (setting [7]); 184 ng/mL in series [3] (setting [8]); 7.55 ng/mL in series [4] (setting [9]); 30.6 ng/mL in series [4] (setting [10]). Also, the Cmax in series [4] (setting [11]) stood at 6.38 ng/mL; in series [4] (setting [12]), 34.4 ng/mL.

As for `Cc1ccc(S(=O)(=O)O)cc1.Cc1ccc(S(=O)(=O)O)cc1.Cn1ncc(-c2nc(N[C@H]3CC[C@H](N)CC3)ncc2Cl)c1CC1CC1` [crystalline di-p-toluenesulfonate salt, di-p-toluensulfonate of (1r,4r)-N^1-(5-chloro-4-(5-(cyclopropylmethyl)-1-methyl-1H-pyrazol-4-yl)pyrimidin-2-yl)cyclohexane-1,4-diamine], the solubility entry in “Solubility in water” is given as “about 2 mg/mL”.
